According to ChEMBL document CHEMBL2203284, “Synthesis and structure based optimization of 2-(4-phenoxybenzoyl)-5-hydroxyindole as a novel CaMKII inhibitor” (Bioorg Med Chem, 2012):

Assays:
[1] = Selectivity ratio of IC50 for MLCK to IC50 for recombinant CaMK2
[2] = Inhibition of recombinant CaMK2 expressed in Sf9cells using autocamtide-2/CAM as substrate after 90 mins; settings: sf9
[3] = Selectivity ratio of IC50 for PKCgamma to IC50 for recombinant CaMK2
[4] = Selectivity ratio of IC50 for p38alpha to IC50 for recombinant CaMK2
[5] = Selectivity ratio of IC50 for Akt1 to IC50 for recombinant CaMK2
[6] = Solubility of the compound in water at pH 7.4; assay type: physicochemical

Row | IC50 [2] [nM] | Compound | other results
1 | 610 | O=C(c1ccc(Oc2ccccc2)cc1)c1cc2cc(O)ccc2[nH]1 | Ratio IC50 [1]: < 1; Ratio IC50 [3]: 93; Ratio IC50 [4]: < 1; Ratio IC50 [5]: 295
2 | 510 | O=C(O)COc1ccc2[nH]c(C(=O)c3ccc(Oc4ccccc4)cc3)cc2c1 | 
3 | 1500 | CC(C)(Oc1ccc2[nH]c(C(=O)c3ccc(Oc4ccccc4)cc3)cc2c1)C(=O)O | 
4 | 1500 | CCNCCOc1ccc2[nH]c(C(=O)c3ccc(Oc4ccccc4)cc3)cc2c1 | 
5 | 1300 | Cc1c(O)ccc2[nH]c(C(=O)c3ccc(Oc4ccccc4)cc3)cc12 | 
6 | 640 | O=C(c1ccc(Oc2ccccc2)cc1)c1cc2c(Cl)c(O)ccc2[nH]1 | 
7 | 800 | O=C(c1ccc(Oc2ccccc2)cc1)c1cc2c(OCCCN3CCCCC3)cccc2[nH]1 | 
8 | 12 | O=C(c1ccc(Oc2ccccc2)cc1)c1cc2c(Br)c(O)c(Br)cc2[nH]1 | solubility [6]: < 1 µg/mL; Ratio IC50 [1]: 63; Ratio IC50 [3]: 1250; Ratio IC50 [4]: 450; Ratio IC50 [5]: > 5000
9 | 820 | O=C(c1ccc(Oc2ccccc2)cc1)c1cc2c(OCCN3CCCCC3)cccc2[nH]1 | 
10 | 1100 | CCNCCOc1cccc2[nH]c(C(=O)c3ccc(Oc4ccccc4)cc3)cc12 | 
11 | 270 | O=C(c1ccc(Oc2ccccc2)cc1)c1cc2c(OCCN3CCNCC3)cccc2[nH]1 | 
12 | > 10000 | COc1ccc2[nH]c(C(=O)c3ccc(Oc4ccccc4)cc3)cc2c1 | 
13 | 420 | O=C(c1ccc(Oc2ccccc2)cc1)c1cc2c(OCCN3CCC(O)CC3)cccc2[nH]1 | 
14 | 2600 | NCCOc1cccc2[nH]c(C(=O)c3ccc(Oc4ccccc4)cc3)cc12 | 
15 | 40 | O=C(c1ccc(Oc2ccccc2)cc1)c1cc2c(Br)c(O)ccc2[nH]1 | solubility [6]: < 1 µg/mL; Ratio IC50 [1]: 12; Ratio IC50 [3]: 550; Ratio IC50 [4]: 115; Ratio IC50 [5]: 1500
16 | 61 | O=C(c1ccc(Oc2ccccc2)cc1)c1cc2c(Cl)c(O)c(Cl)cc2[nH]1 | solubility [6]: < 1 µg/mL
